Assay results reported in PubChem BioAssay (NCI).
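Step 1: Grow cells in 96-well plates. Step 2: Expose to compound for 48 hours at 5 concentrations. Step 3: Interpolate endpoints linearly; if unreached, use highest concentration. The concentration for 50% growth inhibition is given as GI50. TGI is the concentration that stops growth completely.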

Experiments:
Experiment in all cases: NCI anticancer screen, dose series, 48 h
[1] = system: 786-0 renal
[2] = system: IGROV1 ovarian
[3] = system: M14 melanoma
[4] = system: NCI-H460 lung
[5] = system: NCI/ADR-RES ovarian
[6] = system: OVCAR-3 ovarian
[7] = system: SNB-75 CNS
[8] = system: TK-10 renal
[9] = system: UO-31 renal
[10] = system: T-47D breast

Row | SMILES | TGI [1] [µM] | TGI [2] [µM] | TGI [3] [µM] | TGI [4] [µM] | TGI [5] [µM] | TGI [6] [µM] | TGI [7] [µM] | TGI [8] [µM] | TGI [9] [µM] | TGI [10] [µM] | GI50 [2] [µM] | GI50 [3] [µM] | GI50 [4] [µM] | GI50 [5] [µM] | GI50 [6] [µM] | GI50 [7] [µM] | GI50 [10] [µM] | GI50 [8] [µM] | GI50 [9] [µM]
1 | O=C(CNc1nccs1)Nn1cnc2ccc(S(=O)(=O)Nc3nccs3)cc2c1=O | > 100 | > 100 | > 100 | > 100 | > 100 | > 100 | > 100 | > 100 | > 100 | – | – | – | – | – | – | – | – | – | –
2 | CCOC(=O)CCC(NC(=O)c1ccc(Nc2nc3cc(C(F)(F)F)ccc3nc2C(=O)OCC)cc1)C(=O)OCC (stereo not drawn) | 5.5 | 43.5 | 16.9 | 33.9 | 29.7 | 26.7 | – | – | 24.6 | 29.7 | – | – | – | – | – | – | – | – | –
3 | N#C/C=c1/c2ccccc2n2nc3ccccc3c12 | 19.8 | 58.3 | > 100 | > 100 | > 100 | > 100 | – | 30.5 | > 100 | > 100 | – | – | – | – | – | – | – | – | –
4 | C=CCNc1nc(O)c(/C=C2\C=Nc3ncccc32)s1 | – | > 100 | 13.1 | 9.96 | > 100 | 7.29 | 2.96 | 16.8 | > 100 | 7.38 | 2.86 | 3.45 | 2.74 | 5.05 | 2.21 | 1.51 | 2.27 | 2.18 | 3.36
5 | CNC(=O)c1cc2nc3ccccc3c(=O)n2c2ccccc12 | > 10 | > 10 | > 10 | – | > 10 | > 10 | – | > 10 | > 10 | > 10 | – | – | – | – | – | – | – | – | –
6 | CCCc1n[nH]c(=O)n1N1C(=O)C=CC1=O | > 100 | > 100 | > 100 | > 100 | – | > 100 | – | > 100 | – | > 100 | – | – | – | – | – | – | – | – | –
7 | CCOC(=O)C1(C#N)C2(C#N)C(N)=NC(ON=C(C)C)(ON=C(C)C)C12C#N (stereo not drawn) | > 100 | > 100 | > 100 | > 100 | > 100 | – | – | > 100 | > 100 | > 100 | – | – | – | – | – | – | – | – | –
8 | Clc1ccc2nc3n[nH]c(Cl)c3nc2c1 | > 100 | – | > 100 | > 100 | > 100 | > 100 | > 100 | > 100 | 68.2 | > 100 | – | – | – | – | – | – | – | – | –
9 | O=C(O)CN1CCCC(Cc2c[nH]c3ccccc23)C1 (stereo not drawn) | – | > 100 | > 100 | – | > 100 | > 100 | > 100 | > 100 | > 100 | – | – | – | – | – | – | – | – | – | –
10 | C/C=C/c1cc2c(c(=O)o1)C(=O)[C@@H](O)[C@H](C)O2 | – | 23.3 | – | 46.9 | 32.3 | 32.8 | 39 | – | 37.2 | – | – | – | – | – | – | – | – | – | –
11 | O=C(/C=C/c1ccc2c(c1)OCO2)NCCc1ccco1 | – | > 100 | > 100 | > 100 | > 100 | > 100 | > 100 | > 100 | > 100 | > 100 | – | – | – | – | – | – | – | – | –
12 | O=C(NC12CC3CC(CC(C3)C1)C2)C(=O)c1c[nH]c2ccc(Br)cc12 | 20.5 | > 100 | 31.4 | 27 | – | 38.6 | 28.2 | 92.6 | > 100 | – | – | – | – | – | – | – | – | – | –
13 | Nc1ncnc2c1ncn2CCCC(c1ccccc1)P(=O)(O)O (stereo not drawn) | > 100 | > 100 | – | > 100 | – | > 100 | > 100 | > 100 | > 100 | – | – | – | – | – | – | – | – | – | –
14 | CCCCCCCCCCCCCCCCNCC(O)CN (stereo not drawn) | – | 18.9 | – | 3.56 | 4.72 | 6.52 | 11 | – | 25.3 | – | – | – | – | – | – | – | – | – | –
15 | Cc1ccc(/C(O)=C/c2nc3cccnc3[nH]c2=O)cc1 | > 100 | > 100 | > 100 | > 100 | > 100 | > 100 | – | > 100 | > 100 | > 100 | – | – | – | – | – | – | – | – | –
16 | C[C@]12C(=O)C=CCC1=CC[C@@H]1[C@@H]2[C@H]2CC3(O)C(=O)O[C@@]4(C)[C@H]5C[C@@]6(C)[C@@H]7[C@@]2(O)[C@]1(OC[C@H]6C(=O)O5)O[C@]734 (stereo partly drawn) | > 100 | > 100 | > 100 | > 100 | > 100 | – | > 100 | > 100 | > 100 | – | – | – | – | – | – | – | – | – | –
17 | Cn1cc(-c2nc(-c3c[nH]c4ccncc34)cs2)c2ccccc21 | – | – | 3.4 | – | 4.02 | 3.09 | 2.61 | 3.46 | 2.69 | – | – | 1.74 | – | 1.99 | 1.69 | 1.29 | – | 1.97 | 1.38
